Test results from patent US20210317092A1 (BAYER PHARMA AKTIENGESELLSCHAFT, priority 2016, published 2021).
Read-outs that look alike come from different tables or passages of the source.

Legend:
[1] = target: T1, human Bradykinin B1 receptor (Homo sapiens, UniProt P46663); experiment: Calcium flux Assay (FLIPR) with recombinant CHO-K1 cells expressing human Bradykinin B1 receptor, in presence (hB1 IC50) or absence (hB1 free IC50) of 0.1% BSA; type: cell-based
T1 construct: host or cells: CHO-K1
T1 sequence (P46663 1-353): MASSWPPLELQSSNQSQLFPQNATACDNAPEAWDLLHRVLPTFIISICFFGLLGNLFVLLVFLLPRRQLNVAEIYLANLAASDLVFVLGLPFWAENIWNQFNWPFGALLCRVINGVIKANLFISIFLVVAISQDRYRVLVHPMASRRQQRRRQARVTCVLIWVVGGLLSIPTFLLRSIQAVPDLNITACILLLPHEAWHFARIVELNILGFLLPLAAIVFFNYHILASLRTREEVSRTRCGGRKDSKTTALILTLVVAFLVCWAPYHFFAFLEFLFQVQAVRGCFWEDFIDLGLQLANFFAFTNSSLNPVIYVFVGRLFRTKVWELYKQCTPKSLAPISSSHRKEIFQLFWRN

[2] = target: T2, native human Bradykinin B1 receptor (Homo sapiens, UniProt P46663); experiment: Calcium flux Assay (FLIPR) with human fibroblasts expressing Bradykinin B1 receptor (hB1 IMR-90); type: cell-based; conditions: IMR-90 human fibroblasts expressing native Bradykinin B1 receptor
T2 construct: which express native human Bradykinin B1 receptor after induction with human IL-10; Coriell Institute; host or cells: IMR-90 human foetal lung fibroblasts, cytokine-induced
T2 sequence (P46663 1-353): T1 sequence (P46663 1-353)
Outline: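 IMR-90 human foetal lung fibroblasts induced with 0.35 ng/mL […] for 3 h, Fluo-4/AM-loaded, preincubated with compound (8 concentrations, triplicate) for 30 min at 28 °C, then challenged with Lys-(Des-Arg)-bradykinin at EC90. Ca2+ fluorescence was read at 538 nm; full inhibition set by 20 µM Lys-(Des-Arg-Leu)-bradykinin; IC50 derived.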

[3] = in absence of 0.1% BSA, read-out: hB1 free IC50
[4] = in presence of 0.1% BSA, read-out: hB1 IC50

Structure (SMILES)	IC50 [1, 3]	IC50 [1, 4]	IC50 [2]
COc1ccc(-c2ccc(NC(=O)C3(c4ccc(Cl)cn4)CC3)cc2-c2nnn[nH]2)cc1OC [Example 23, 1-(5-chloropyridin-2-yl)-N-[3′,4′-dimethoxy-2-(1H-tetrazol-5-yl)biphenyl-4-yl]cyclopropane carboxamide]	145 nM	176 nM	35.2 nM
COc1ccc(-c2c(F)cc(NC(=O)C3(c4cccc(Cl)c4)CC3)cc2-c2nnn[nH]2)cc1OC [Example 234, 1-(3-Chlorophenyl)-N-[2-fluoro-3′,4′-dimethoxy-6-(1H-tetrazol-5-yl)biphenyl-4-yl]cyclopropane carboxamide]	11 nM	29.9 nM	18.6 nM
O=C(Nc1ccc(-c2ccc(C(F)(F)F)nc2)c(-c2nnn[nH]2)c1)C1(c2cc(F)ccc2F)CC1 [Example 141, 1-(2,5-difluorophenyl)-N-{3-(1H-tetrazol-5-yl)-4-[6-(trifluoromethyl)pyridin-3-yl]phenyl} cyclopropane-carboxamide]	224 nM		141 nM
O=C(Nc1ccc(-c2ccc(C(F)(F)F)nc2)c(-c2nnn[nH]2)c1)C1(c2ccc(Cl)c(F)c2)CC1 [Example 137, 1-(4-Chloro-3-fluorophenyl)-N-{3-(1H-tetrazol-5-yl)-4-[6-(trifluoromethyl)pyridin-3-yl]phenyl} cyclopropane-carboxamide]	17.1 nM		43.9 nM
COc1ccc(-c2c(F)cc(NC(=O)C3(c4ccc(C(F)(F)F)cc4)CC3)cc2-c2nnn[nH]2)cc1OC [Example 232, N-[2-Fluoro-3′,4′-dimethoxy-6-(1H-tetrazol-5-yl)biphenyl-4-yl]-1-[4-(trifluoromethyl)phenyl] cyclopropane-carboxamide]	8.26 nM	18.6 nM	6.8 nM
CCOc1ccc(-c2c(F)cc(NC(=O)C3(c4ccc(C(F)(F)F)cc4F)CC3)cc2-c2nnn[nH]2)cn1 [Example 240, N-[4-(6-ethoxypyridin-3-yl)-3-fluoro-5-(1H-tetrazol-5-yl)phenyl]-1-[2-fluoro-4-(trifluoromethyl)phenyl] cyclopropane-carboxamide]	2.35 nM		2.83 nM
CCOc1ccc(-c2ccc(NC(=O)C3(c4cccc(Cl)c4F)CC3)cc2-c2nnn[nH]2)cn1 [Example 73, 1-(3-chloro-2-fluorophenyl)-N-[4-(6-ethoxypyridin-3-yl)-3-(1H-tetrazol-5-yl)phenyl] cyclopropane-carboxamide]	13.9 nM	16.2 nM	7.98 nM
CCOc1ccc(-c2ccc(NC(=O)C3(c4cc(F)ccc4F)CC3)cc2-c2nnn[nH]2)cn1 [Example 83, 1-(2,5-difluorophenyl)-N-[4-(6-ethoxypyridin-3-yl)-3-(1H-tetrazol-5-yl)phenyl] cyclopropane-carboxamide]	60.5 nM	37.5 nM	33 nM
COc1ccc(-c2ccc(NC(=O)C3(c4ccccc4Cl)CC3)cc2-c2nnn[nH]2)cc1OC [Example 36, 1-(2-chlorophenyl)-N-[3′,4′-dimethoxy-2-(1H-tetrazol-5-yl)biphenyl-4-yl]cyclopropane carboxamide]		128 nM	104 nM
CCCc1cccc(C2(C(=O)Nc3ccc(-c4ccc(OCC)nc4)c(-c4nnn[nH]4)c3)CC2)c1 [Example 96, N-[4-(6-ethoxypyridin-3-yl)-3-(1H-tetrazol-5-yl)phenyl]-1-(3-propylphenyl) cyclopropane-carboxamide]	5.32 nM	6.58 nM	15.3 nM
O=C(Nc1ccc(-c2ccc(N3CCOCC3)nc2)c(-c2nnn[nH]2)c1)C1(c2cccc(Cl)c2)CC1 [Example 329, 1-(3-chlorophenyl)-N-{4-[6-(morpholin-4-yl)pyridin-3-yl]-3-(1H-tetrazol-5-yl)phenyl}cyclopro-panecarboxa-mide]	85 nM	90.5 nM	70.3 nM
CCCOc1ccc(-c2ccc(NC(=O)C3(c4cccc(Cl)c4)CC3)cc2-c2nnn[nH]2)cn1 [Example 110, 1-(3-chlorophenyl)-N-[4-(6-propoxypyridin-3-yl)-3-(1H-tetrazol-5-yl)phenyl] cyclopropane-carboxamide]	5.68 nM	12.7 nM	11 nM
CCOc1ccc(-c2ccc(NC(=O)C3(c4cccc(F)c4F)CC3)cc2-c2nnn[nH]2)cn1 [Example 79, 1-(2,3-difluorophenyl)-N-[4-(6-ethoxypyridin-3-yl)-3-(1H-tetrazol-5-yl)phenyl] cyclopropane-carboxamide]		25.1 nM	24.7 nM
CCOc1ccc(-c2ccc(NC(=O)C3(c4cccc(C(F)(F)F)c4)CC3)cc2-c2nnn[nH]2)cn1 [Example 98, N-[4-(6-ethoxypyridin-3-yl)-3-(1H-tetrazol-5-yl)phenyl]-1-[3-(trifluoromethyl)phenyl] cyclopropane-carboxamide]		8.67 nM	5.78 nM
O=C(Nc1ccc(-c2ccc(C(F)(F)F)cc2)c(-c2nnn[nH]2)c1)C1(c2cccc(Cl)c2)CC1 [Example 128, 1-(3-chlorophenyl)-N-[2-(1H-tetrazol-5-yl)-4′-(trifluoromethyl)biphenyl-4-yl]cyclopropane carboxamide]	2.68 nM	137 nM	63.3 nM
CCOc1ccc(-c2c(F)cc(NC(=O)C3(c4cccc(Cl)c4)CC3)cc2-c2nnn[nH]2)cn1 [Example 236, 1-(3-chlorophenyl)-N-[4-(6-ethoxypyridin-3-yl)-3-fluoro-5-(1H-tetrazol-5-yl)phenyl] cyclopropane-carboxamide]	2.9 nM		15.6 nM
CCOc1ccc(-c2ccc(NC(=O)C3(c4ccc(F)cc4F)CC3)cc2-c2nnn[nH]2)cn1 [Example 101, 1-(2,4-difluorophenyl)-N-[4-(6-ethoxypyridin-3-yl)-3-(1H-tetrazol-5-yl)phenyl] cyclopropane-carboxamide]	24.5 nM	38.7 nM	22.1 nM
CCc1cc(-c2ccc(NC(=O)C3(c4cccc(Cl)c4)CC3)cc2-c2nnn[nH]2)ccn1 [Example 181, 1-(3-chlorophenyl)-N-[4-(2-ethylpyridin-4-yl)-3-(1H-tetrazol-5-yl)phenyl] cyclopropane-carboxamide]	20.8 nM	14.8 nM	7.29 nM
CCOc1ccc(-c2ccc(NC(=O)C3(c4cccc(Cl)c4)CC3)cc2-c2nnn[nH]2)cc1OC [Example 119, 1-(3-chlorophenyl)-N-[4′-ethoxy-3′-methoxy-2-(1H-tetrazol-5-yl)biphenyl-4-yl]cyclopropane carboxamide]	2.88 nM	22.7 nM	13.1 nM
CCCOc1ccc(-c2ccc(NC(=O)C3(c4ccc(C(F)(F)F)cc4)CC3)cc2-c2nnn[nH]2)cn1 [Example 111, N-[4-(6-propoxypyridin-3-yl)-3-(1H-tetrazol-5-yl)phenyl]-1-[4-(trifluoromethyl)phenyl] cyclopropane-carboxamide]	4.98 nM	16.6 nM	10.6 nM
Cc1ccc(-c2ccc(NC(=O)C3(c4cccc(Cl)c4)CC3)cc2-c2nnn[nH]2)cn1 [Example 208, 1(3-chlorophenyl)-N-[4-(6-methylpyridin-3-yl)-3-(1H-tetrazol-5-yl)phenyl] cyclopropane-carboxamide]	22.6 nM	15.8 nM	11.2 nM
O=C(Nc1ccc(-c2ccc(C(F)(F)F)nc2)c(-c2nnn[nH]2)c1)C1(c2cccc(Cl)c2)CC1 [Example 135, 1-(3-chlorophenyl)-N-{3-(1H-tetrazol-5-yl)-4-[6-(trifluoromethyl)pyridin-3-yl]phenyl} cyclopropane-carboxamide]	58.7 nM	516 nM	91.8 nM
CCOc1ccc(-c2c(Cl)cc(NC(=O)C3(c4cccc(Cl)c4)CC3)cc2-c2nnn[nH]2)cn1 [Example 247, N-[3-chloro-4-(6-ethoxypyridin-3-yl)-5-(1H-tetrazol-5-yl)phenyl]-1-(3-chlorophenyl) cyclopropane-carboxamide]	20 nM	61.8 nM	37.3 nM
O=C(Nc1ccc(-c2ccc(C(F)(F)F)nc2)c(-c2nnn[nH]2)c1)C1(c2ccc(OC(F)(F)F)cc2F)CC1 [Example 294, 1-[2-fluoro-4-(trifluoromethoxy)phenyl]-N-{3-(1H-tetrazol-5-yl)-4-[6-(trifluoromethyl)pyridin-3-yl]phenyl}cyclopro-panecarboxa-mide]	5.96 nM		6.13 nM
COc1ccc(-c2ccc(NC(=O)C3(c4ccc(C)c(F)c4)CC3)cc2-c2nnn[nH]2)cc1OC [Example 12, N-[3′,4′-dimethoxy-2-(1H-tetrazol-5-yl)biphenyl-4-yl]-1-(3-fluoro-4-methylpheny) cyclopropane-carboxamide]	56.4 nM	18.1 nM	39.3 nM
O=C(Nc1ccc(-c2ccc(C(F)(F)F)nc2)c(-c2nnn[nH]2)c1)C1(c2ccc(C(F)(F)F)cc2)CC1 [Example 140, N-{3-(1H-tetrazol-5-yl)-4-[6-(trifluoromethyl)pyridin-3-yl]phenyl}-1-[4-(trifluoromethyl)phenyl] cyclopropane-carboxamide]	42.1 nM		85.1 nM
